Test results published in publication PMC9848300, “Discovery of novel enasidenib analogues targeting inhibition of mutant isocitrate dehydrogenase 2 as antileukaemic agents” (Journal of Enzyme Inhibition and Medicinal Chemistry, 2023).
Like-named read-outs stand apart in the source and are kept apart here.

Legend:
MOLT-4 = assay: NCI 60 antitumor screening (single dose / five doses); format: cell-based; conditions: Homo sapiens
SNB-75 = assay: as above; format: cell-based; conditions: Homo sapiens
RXF 393 = assay: as above; format: cell-based; conditions: Homo sapiens
[1] = tested on: 60 human subpanel cancer cell lines; assay: NCI 60 antitumor screening, mean over the panel (single dose); format: cell-based; conditions: mean over 60 cancer cell lines, single dose 10 μM
Procedure, shortened: (§1)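 Single-dose NCI protocol, 10 μM, triplicate. Readout G%; GI% = 100 − G%.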

MALME-3M = assay: NCI 60 antitumor screening (single dose / five doses); format: cell-based; conditions: Homo sapiens, read-out: Growth inhibition percentage (GI %)
MDA-MB-231/ATCC = assay: as above; format: cell-based; conditions: Homo sapiens
HL-60(TB) = assay: as above; format: cell-based; conditions: Homo sapiens
MDA-MB-435 = assay: as above; format: cell-based; conditions: Homo sapiens
HCT-15 = assay: as above; format: cell-based; conditions: Homo sapiens
RPMI-8226 = assay: as above; format: cell-based; conditions: Homo sapiens
BT-549 = assay: as above; format: cell-based; conditions: Homo sapiens
CCRF-CEM = assay: as above; format: cell-based; conditions: Homo sapiens, read-out: Growth inhibition percentage (GI %)
UACC-62 = assay: as above; format: cell-based; conditions: Homo sapiens
HT29 = assay: as above; format: cell-based, human; conditions: Homo sapiens
SK-MEL-5 = assay: as above; format: cell-based; conditions: Homo sapiens
SF-539 = assay: as above; format: cell-based; conditions: Homo sapiens
SW-620 = assay: as above; format: cell-based, human; conditions: Homo sapiens
UO-31 = assay: as above; format: cell-based; conditions: Homo sapiens
A549/ATCC = assay: NCI 60 antitumor screening (single dose); format: cell-based; conditions: Homo sapiens; A549/ATCC (non-small cell lung cancer), single dose 10 μM; read-out: Growth inhibition percentage (GI %)
Procedure, shortened: (§2)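 Assessment used the first tier of the NCI 60 screen, one dose of 10 μM per compound. Triplicate experiments gave percent growth of treated cells. Inhibition was then derived as 100 − G%.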

NCI-H522 = assay: NCI 60 antitumor screening (single dose); format: cell-based; conditions: Homo sapiens; NCI-H522 (non-small cell lung cancer), single dose 10 μM; read-out: Growth inhibition percentage (GI %)
Procedure, shortened: as §1

MCF7 = assay: NCI 60 antitumor screening (single dose); format: cell-based; conditions: Homo sapiens; MCF7 (breast cancer), single dose 10 μM; read-out: Growth inhibition percentage (GI %)
Procedure, shortened: as §2

NCI-H23 = assay: NCI 60 antitumor screening (single dose); format: cell-based; conditions: Homo sapiens; NCI-H23 (non-small cell lung cancer), single dose 10 μM; read-out: Growth inhibition percentage (GI %)
Procedure, shortened: as §1

M14 = assay: NCI 60 antitumor screening (single dose); format: cell-based; conditions: Homo sapiens; M14 (melanoma), single dose 10 μM; read-out: Growth inhibition percentage (GI %)
Procedure, shortened: as §2

SF-268 = assay: NCI 60 antitumor screening (single dose); format: cell-based; conditions: Homo sapiens; SF-268 (CNS cancer), single dose 10 μM; read-out: Growth inhibition percentage (GI %)
Procedure, shortened: as §1

NCI-H322M = assay: NCI 60 antitumor screening (single dose); format: cell-based; conditions: Homo sapiens; NCI-H322M (non-small cell lung cancer), single dose 10 μM; read-out: Growth inhibition percentage (GI %)
Procedure, shortened: as §2

CAKI-1 = assay: NCI 60 antitumor screening (single dose); format: cell-based; conditions: Homo sapiens; CAKI-1 (renal cancer), single dose 10 μM; read-out: Growth inhibition percentage (GI %)
Procedure, shortened: as §2

786-0 = assay: NCI 60 antitumor screening (single dose / five doses); format: cell-based; conditions: Homo sapiens
A498 = assay: as above; format: cell-based; conditions: Homo sapiens
[2] = MOLT-4 (leukaemia), single dose 10 μM, read-out: Growth inhibition percentage (GI %)
[3] = SNB-75 (CNS cancer), single dose 10 μM, read-out: Growth inhibition percentage (GI %)
[4] = RXF 393 (renal cancer), single dose 10 μM, read-out: Growth inhibition percentage (GI %)
[5] = MALME-3M (melanoma), single dose 10 μM
[6] = MDA-MB-231/ATCC (breast cancer), single dose 10 μM, read-out: Growth inhibition percentage (GI %)
[7] = HL-60(TB) (leukaemia), single dose 10 μM, read-out: Growth inhibition percentage (GI %)
[8] = MDA-MB-435 (melanoma), single dose 10 μM, read-out: Growth inhibition percentage (GI %)
[9] = HCT-15 (colon cancer), single dose 10 μM, read-out: Growth inhibition percentage (GI %)
[10] = RPMI-8226 (leukaemia), single dose 10 μM, read-out: Growth inhibition percentage (GI %)
[11] = BT-549 (breast cancer), single dose 10 μM, read-out: Growth inhibition percentage (GI %)
[12] = CCRF-CEM (leukaemia), single dose 10 μM
[13] = UACC-62 (melanoma), single dose 10 μM, read-out: Growth inhibition percentage (GI %)
[14] = HT-29, HT29 (colon cancer), single dose 10 μM, read-out: Growth inhibition percentage (GI %)
[15] = SK-MEL-5 (melanoma), single dose 10 μM, read-out: Growth inhibition percentage (GI %)
[16] = SF-539 (CNS cancer), single dose 10 μM, read-out: Growth inhibition percentage (GI %)
[17] = SW-620 (colon cancer), single dose 10 μM, read-out: Growth inhibition percentage (GI %)
[18] = UO-31 (renal cancer), single dose 10 μM, read-out: Growth inhibition percentage (GI %)
[19] = 786-0, 786-0 (renal cancer), single dose 10 μM, read-out: Growth inhibition percentage (GI %)
[20] = A498 (renal cancer), single dose 10 μM, read-out: Growth inhibition percentage (GI %)

Compound `Fc1cccc(Cl)c1/C=N/Nc1nc(N/N=C/c2c(F)cccc2Cl)nc(N2CCOCC2)n1` [compound 6l, 2,4-Bis[(E)-2-[(2-Chloro-6-fluorophenyl)methylidene]hydrazin-1-yl]-6-(morpholin-4-yl)-1,3,5-triazine] has an inhibition at 10 µM (MOLT-4; [2]) of 18.2%, an inhibition at 10 µM (SNB-75; [3]) of 9.55% and an inhibition at 10 µM (RXF 393; [4]) of 17.8%. The “Mean GI %” value [1] was 19.00%, the inhibition at 10 µM (MALME-3M; [5]) was 16% and the inhibition at 10 µM (MDA-MB-231/ATCC; [6]) was 10.7%. For the same compound, the inhibition at 10 µM (HL-60(TB); [7]) was 26.1%, the inhibition at 10 µM (MDA-MB-435; [8]) was 19.4% and the inhibition at 10 µM (HCT-15; [9]) was 22.1%. For the same compound, the inhibition at 10 µM (RPMI-8226; [10]) was 41.1%, the inhibition at 10 µM (BT-549; [11]) was -1.45% and the inhibition at 10 µM (CCRF-CEM; [12]) was 18.9%. For the same compound, the inhibition at 10 µM (UACC-62; [13]) was 19.8%, the inhibition at 10 µM (HT29; [14]) was 30.6% and the inhibition at 10 µM (SK-MEL-5; [15]) was 44.9%. It also gave an inhibition at 10 µM (SF-539; [16]) of 7.53%, an inhibition at 10 µM (SW-620; [17]) of 9.73% and an inhibition at 10 µM (UO-31; [18]) of 33.5%. For the same compound, the inhibition at 10 µM (A549/ATCC) was 21%, the inhibition at 10 µM (NCI-H522) was 14.4% and the inhibition at 10 µM (MCF7) was 29%. It also gave an inhibition at 10 µM (NCI-H23) of 27.2%, an inhibition at 10 µM (M14) of 27.8% and an inhibition at 10 µM (SF-268) of 11.2%. It also gave an inhibition at 10 µM (NCI-H322M) of 16.2%, an inhibition at 10 µM (CAKI-1) of 17.5% and an inhibition at 10 µM (786-0; [19]) of 3.32%. It also gave an inhibition at 10 µM (A498; [20]) of 26.9%.

Work on `Clc1cccc(/C=N/Nc2nc(N/N=C/c3cccc(Cl)c3)nc(N3CCCCC3)n2)c1` [compound 7d, 2,4-Bis[(E)-2-[(3-Chlorophenyl)methylidene]hydrazin-1-yl]-6-(piperidin-1-yl)-1,3,5-triazine] yielded an inhibition at 10 µM (MOLT-4; [2]) of 31.3%, an inhibition at 10 µM (SNB-75; [3]) of -2.48% and an inhibition at 10 µM (RXF 393; [4]) of 6.56%. The “Mean GI %” value [1] was 7.03%, the inhibition at 10 µM (MALME-3M; [5]) was -9.06% and the inhibition at 10 µM (MDA-MB-231/ATCC; [6]) was -16.1%. For the same compound, the inhibition at 10 µM (HL-60(TB); [7]) was 3.01%, the inhibition at 10 µM (MDA-MB-435; [8]) was 9.61% and the inhibition at 10 µM (HCT-15; [9]) was 20.2%. The inhibition at 10 µM (RPMI-8226; [10]) was 27.6%, the inhibition at 10 µM (BT-549; [11]) was 5.13% and the inhibition at 10 µM (CCRF-CEM; [12]) was 25%. The inhibition at 10 µM (UACC-62; [13]) was 20.8%, the inhibition at 10 µM (HT29; [14]) was 14.4% and the inhibition at 10 µM (SK-MEL-5; [15]) was 19.4%. For the same compound, the inhibition at 10 µM (SF-539; [16]) was -5.25%, the inhibition at 10 µM (SW-620; [17]) was -2.95% and the inhibition at 10 µM (UO-31; [18]) was 23.2%. For the same compound, the inhibition at 10 µM (A549/ATCC) was 13.7%, the inhibition at 10 µM (NCI-H522) was 11.7% and the inhibition at 10 µM (MCF7) was 16.9%. The inhibition at 10 µM (NCI-H23) was 2.24%, the inhibition at 10 µM (M14) was 4.75% and the inhibition at 10 µM (SF-268) was 8.03%. It also gave an inhibition at 10 µM (NCI-H322M) of -1.33%, an inhibition at 10 µM (CAKI-1) of 7.63% and an inhibition at 10 µM (786-0; [19]) of 4.76%. The inhibition at 10 µM (A498; [20]) was 7.8%.

Work on `O=[N+]([O-])c1cccc(/C=N/Nc2nc(N/N=C/c3cccc([N+](=O)[O-])c3)nc(N3CCCCC3)n2)c1` [compound 7f, 2,4-Bis[(E)-2-[(3-Nitrophenyl)methylidene]hydrazin-1-yl]-6-(piperidin-1-yl)-1,3,5-triazine] yielded an inhibition at 10 µM (MOLT-4; MOLT-4, read-out: Growth inhibition percentage (GI %)) of 57.2%, an inhibition at 10 µM (SNB-75; SNB-75, read-out: Growth inhibition percentage (GI %)) of -0.71% and an inhibition at 10 µM (RXF 393; RXF 393, read-out: Growth inhibition percentage (GI %)) of -3.98%. For the same compound, the “Mean GI %” value [1] was 30.94%, the inhibition at 10 µM (MALME-3M; Malme-3M) was 7.94% and the inhibition at 10 µM (MDA-MB-231/ATCC; MDA-MB-231, read-out: Growth inhibition percentage (GI %)) was 0.87%. The inhibition at 10 µM (HL-60(TB); HL-60, read-out: Growth inhibition percentage (GI %)) was 42.8%, the inhibition at 10 µM (MDA-MB-435; MDA-MB-435, read-out: Growth inhibition percentage (GI %)) was 26.1% and the inhibition at 10 µM (HCT-15; HCT-15, read-out: Growth inhibition percentage (GI %)) was 53.5%. The inhibition at 10 µM (RPMI-8226; RPMI-8226, read-out: Growth inhibition percentage (GI %)) was 69.3%, the inhibition at 10 µM (BT-549; BT-549, read-out: Growth inhibition percentage (GI %)) was 28.2% and the inhibition at 10 µM (CCRF-CEM; CCRF-CEM) was 65.1%. It also gave an inhibition at 10 µM (UACC-62; UACC-62, read-out: Growth inhibition percentage (GI %)) of 43.7%, an inhibition at 10 µM (HT29; HT-29, read-out: Growth inhibition percentage (GI %)) of 36.3% and an inhibition at 10 µM (SK-MEL-5; SK-MEL-5, read-out: Growth inhibition percentage (GI %)) of 52.4%. It also gave an inhibition at 10 µM (SF-539; SF-539, read-out: Growth inhibition percentage (GI %)) of 7.37%, an inhibition at 10 µM (SW-620; SW-620, read-out: Growth inhibition percentage (GI %)) of 16.5% and an inhibition at 10 µM (UO-31; UO-31, read-out: Growth inhibition percentage (GI %)) of 48.4%. The inhibition at 10 µM (A549/ATCC) was 39.3%, the inhibition at 10 µM (NCI-H522) was 58.1% and the inhibition at 10 µM (MCF7) was 38.7%. For the same compound, the inhibition at 10 µM (NCI-H23) was 37.8%, the inhibition at 10 µM (M14) was 41.2% and the inhibition at 10 µM (SF-268) was 24.3%. The inhibition at 10 µM (NCI-H322M) was 13.8%, the inhibition at 10 µM (CAKI-1) was 27.6% and the inhibition at 10 µM (786-0; 786-0, read-out: Growth inhibition percentage (GI %)) was -6.21%. The inhibition at 10 µM (A498; A498, read-out: Growth inhibition percentage (GI %)) was 18.7%.
